The nature of assay [1]: Tasting in mango juice drink, 1% clear mango juice. Particulars: 8% sucrose, 0.1% citric acid, mango flavour 0.05%. Here is the method: Comparison in a Mango Juice Drink
Base is 8% sucrose, 0.1% citric acid, 1% clear mango juice, and a proprietary mango flavour at 0.05%.
(§1) Samples were evaluated by expert tasters. Tasters were asked to describe the samples focusing on authentic taste, mouthfeel, fullness, salty-ness, salivation, umami, sweetness, juiciness, richness, long lastingness and fattiness.
Base is water, 8% sucrose, 0.1% citric acid, 1% clear mango juice, proprietary mango flavour @ 0.05%
(§2) Samples were evaluated by expert tasters. Tasters were asked to describe the samples focusing on authentic taste, mouthfeel, fullness, salivation, salty-ness, umami, sweetness, juiciness, richness, long lastingness and fattiness.
Base is water, 8% sucrose, 0.1% citric acid, 1% clear mango juice, proprietary mango flavour @0.05%
(§3) Samples were evaluated by expert tasters. Tasters were asked to describe the samples focusing on authentic taste, mouthfeel, fullness, salty-ness, salivation, umami, sweetness, juiciness, richness, long lastingness and fattiness
Base is 8% sucrose, 0.1% citric acid, 1% clear mango juice, proprietary mango flavour @ 0.05%
(§4) Samples were evaluated by expert tasters. Tasters were asked to describe the samples focusing on authentic taste, mouth feel, fullness, salivation, salty-ness, umami, sweetness, juiciness, richness, long lastingness and fattiness
Base is water, 8% sucrose, 0.1% citric acid, 1% clear mango juice, proprietary mango flavour @ 0.05%.
Test in a Mango Juice Drink

Assay [2] can be described thus: Test in orange beverage. Particulars: 1 ppm; water, 7% sugar (8% sucrose elsewhere in the source), 0.1% citric acid, orange flavour 0.06%. Here is the method: as §1
Base is water, 7% sugar, 0.1% citric acid, proprietary orange flavour @ 0.06%.
as §3
Base is water, 7% sugar, 0.1% citric acid, proprietary orange flavour @ 0.06%
as §4
Samples were evaluated by expert tasters. Tasters were asked to describe the samples focusing on authentic taste, mouthfeel, fullness, salivation, sweetness, juiciness, richness, long lastingness and fattiness
Comparison in an Orange Drink
Base: water, 8% sucrose, 0.1% citric acid, proprietary orange flavour @ 0.06%.

Assay [3] in a line: Tasting in Maggi beef bouillon. Particulars: Maggi beef bouillon 1 tablet in 500 ml of hot water. As to the method: (§5) Samples were prepared and evaluated by expert tasters. Tasters were asked to describe the samples focusing on authentic taste, mouthfeel, fullness, salty-ness, salivation, umami, sweetness, juiciness, richness, long lastingness and fattiness.
Comparison in Beef Bouillon
Base is Maggi beef bouillon 1 tablet in 500 ml of hot water
as §1, §2, §3, §4

Assay [4] in a line: Tasting in chicken bouillon. The settings on record: 0.7% salt, 0.5% fat. Here is the method:
(§6) The following formulations were prepared and tasted by trained panelists.
Standard Chicken bouillon base, 0.7% salt, 0.5% fat
Samples were prepared and evaluated by expert tasters. Tasters were asked to describe the samples focusing on authentic taste, mouthfeel, fullness, salivation, salty-ness, umami, sweetness, juiciness, richness, long lastingness and fattiness.
Test in Soups and Bouillons
Standard Chicken Bouillon Base

Assay [5] is described as follows: Tasting in beef bouillon base. Particulars: 0.5 PPM in beef bouillon base 1.0% salt, 0.5% fat. Here is the method: as §6
Beef Bouillon base 1.0% salt, 0.5% fat

The nature of assay [6]: Tasting in strawberry drink. Particulars: 7% sucrose, 0.1% citric acid, strawberry flavour 0.015%. Here is the method: as §5
Comparison in a Strawberry Drink
Base is 7% sucrose, 0.1% citric acid, and a proprietary strawberry flavour @ 0.015%
as §1
Base is water, 7% sucrose, 0.1% citric acid, proprietary strawberry flavour @ 0.015%
as §2
Test in a Strawberry Drink
Base is 7% sucrose, 0.1% citric acid, proprietary strawberry flavour @ 0.015%

Assay [7] can be described thus: Tasting in strawberry flavoured sugar sweetened yoghurt. Particulars: 2 ppm, 1.5% fat yoghurt, 8% sucrose, strawberry flavour 0.015%. As to the method:
Strawberry Flavoured Sugar Sweetened Yoghurt
In a 1.5% fat yoghurt base, sweetened with 8% sucrose by weight, flavoured with a proprietary strawberry flavour @ 0.015% several different N-acyl aminoacids were added.
as §5
Test in a Strawberry Yoghurt
Base: Yoghurt 1.5% fat yoghurt, 8% sucrose, proprietary strawberry flavour @ 0.015%
as §2

Assay [8] can be described thus: Test in peach flavoured drink. The settings on record: 1 ppm; water, 8% sugar, 0.1% citric acid, peach flavour 0.05%. As to the method: as §5
Test in Peach Flavoured Drink:
Base is water, 8% sugar, 0.1% citric acid, and proprietary peach flavour at 0.05%
as §1
Comparison in a Peach Drink
Base is water, 8% sugar, 0.1% citric acid, proprietary peach flavour at 0.05%
as §2

Assay [9] can be described thus: Tasting in vanilla milk 0.15% fat. Particulars: 1 ppm, 4% sucrose, Vaniline 10 ppm + vanilla extract 0.03%. Here is the method:
as §5
Base: Milk 0.15% fat, sweetened with 4% sucrose by weight, flavoured with proprietary
Vaniline flavour @ 10 ppm+Vanilla ext. @ 0.03%
as §1
Comparison in a Vanilla Milk Drink
Vaniline @ 10 ppm+Vanilla extract @ 0.03%
Base: Milk 0.15% fat, sweetened with 4% sucrose by weight, flavoured with proprietary Vaniline @ 10 ppm+Vanilla extract @ 0.03%

Setting [10] is: 0.2 PPM in chicken bouillon base.

With `CCCCCCCCCCCCCCCC(=O)N[C@@H](CC(C)C)C(=O)O` [C16:0-leu, N-palmitoyl-L-leucine], the tasting result in [1] (2 ppm) was “very fruity, ripe mango taste, strawberry note”.
`CCCCC/C=C\C/C=C\CCCCCCCC(=O)NC(CO)C(=O)O` (stereo not drawn) [C18:2-ser, N-linoleoyl-Ser]: the tasting result in [2] is “very fresh, authentic, slightly less sweet, more juicy”; in assay [3] (1 ppm), “more umami, slightly more salty, sweet”; in assay [1] (1 ppm), “apple note, less acidic, juicy”.
`CCCCCCCCCCCCCCCC(=O)NC(CCSC)C(=O)O` (stereo not drawn) [C16:0-met, N-palmitoyl-Met]: the tasting result is recorded as “slightly metallic, fresh” in assay [2]; “salty, full, nice salivating, lingering” in assay [3] (1 ppm); “fatty, full body, juicy, metallic” in assay [1] (1 ppm).
Take `CC(C)=CCC/C(C)=C/C(=O)NC1(C(=O)O)CC1` [Geranoyl ACCA, N-geranoyl 1-amino-cyclopropyl carboxylic acid]: in assay [4] (setting [10]), the tasting result is given as “Saltier Umami lingering Mouthfeel”.
On to `CCCCCC/C=C\CCCCCCCC(=O)NC(CC(C)C)C(=O)O` [C16:1 leu, N-palmitenoyl-L-leucine], for which the tasting result in [5] was “Strong salty and rich”.
On to `CCCCC/C=C\C/C=C\CCCCCCCC(=O)NC(CCSC)C(=O)O` (stereo not drawn) [C18:2-met, N-linoleoyl-Met], for which the tasting result in assay [3] (1 ppm) is “salivating salty, umami”; in [1] (1 ppm), “fresh nice juicy”.
As to `CCCCCCCC/C=C\CCCCCCCC(=O)N[C@@H](CC(C)C)C(=O)O` [C18:1-leu, N-oleoyl-L-leucine], the tasting result in assay [1] (2 ppm) is reported as “very long lasting, ripe, fruity, juicy”.
Turning to `CCCCCCCC/C=C\CCCCCCCC(=O)NC(CCC(N)=O)C(=O)O` (stereo not drawn) [C18:1-gln], the tasting result in assay [6] (0.5 ppm) was “more juicy, creamy, fruity long lasting”; in [7], “Juicy, nice, fatty aftertaste”.
Regarding `CCCCCCCCCCCCCCCCCC(=O)NC(CC(=O)O)C(=O)O` (stereo not drawn) [C18:0-asp, N-stearoyl-Asp], the tasting result in [3] (1 ppm) was “lot off fullness and body, less salty”; in [1] (1 ppm) it was “fatty, fruity, long lasting”.
For the molecule `CCCCCCCC/C=C\CCCCCCCC(=O)N[C@H](C(=O)O)C(C)C` [C18:1-val, N-oleoyl-L-valine], the tasting result in assay [8] is “tropical, fatty, skin, juicy”.
As to `CCCCC/C=C\C/C=C\CCCCCCCC(=O)N[C@H](C(=O)O)C(C)C` [C18:2-val, N-linoleoyl-L-valine], the tasting result in [3] (1 ppm) was “more umami, salivating, salty”; in assay [5], “more body and mouthfeel, more umami”; in [1] (1 ppm), “ripe, very juicy nice, full body, long lasting”.
Regarding `CCCCCCCCCCCCCCCC(=O)NCCC(=O)O` [C16:0-beta ala], the tasting result in assay [3] (2 ppm) is reported as “more salty salivating umami”; in assay [1] (2 ppm), “more juicy”.
Turning to `CCCCCCCCCCCCCCCCCC(=O)NC(CCC(=O)O)C(=O)O` (stereo not drawn) [C18:0-glu, N-stearoyl-Glu], the tasting result in [9] is recorded as “full, fatty, whipped cream like”; in [6] (0.5 ppm), “fruity, juicy, long lasting”; in assay [1] (1 ppm), “fatty, full, sweet juicy”.
Consider `CCCCC/C=C\C/C=C\CCCCCCCC(=O)N[C@@H](C)C(=O)O` [C18:2-ala, N-linoleoyl-L-alanine], for which the tasting result is “enhanced sulfur note, powdery, soft peach skin like, authentic peach, slight raspberry note” in [8]; “creamy, fruity, juicy, green, long lasting, strawberry” in assay [6] (0.5 ppm); “fatty, juicy, apple skin taste” in [1] (1 ppm).
For the molecule `CCCCCCCCCCCCCCCCCC(=O)NCCCC(=O)O` [C18:0-gaba], the tasting result in [6] (0.5 ppm) is “mild creamy, fruity, juicy and long lasting”; in [7], “juicy full, jammy”.
Regarding `CCCCC/C=C\C/C=C\CCCCCCCC(=O)NCCC(=O)O` [C18:2-beta ala], the tasting result in assay [3] (2 ppm) was “salty, savoury, full”; in assay [1] (2 ppm), “full long lasting nice juicy, almost a bit salty”.
Regarding `CCCCCCCC(=O)NC(CCSC)C(=O)O` (stereo not drawn) [C8:0-met], the tasting result in [3] (1 ppm) is on record as “more salty, no additional fullness”; in [1] (1 ppm), “green fresh, no additional body”.
For `CCCCCC/C=C\CCCCCCCC(=O)NCCCC(=O)O` [C16:1-gaba], the tasting result in assay [6] (2 ppm) is “juicy, fruity, fatty, long lasting, good mouthfeel”; in [1] (2 ppm) it was “juicy, rich, full authentic”.
Regarding `CCCCCCCCCC(=O)NC1(C(=O)O)CC1` [C10:0 ACCA, N-decanoyl 1-amino-cyclopropyl carboxylic acid], the tasting result is given as “More umami lingering body” in assay [4] (setting [10]) and “Nice strong salty, Umami lingering body, better chicken profile” in assay [4] (0.5 PPM in chicken bouillon base).
`CCCCC/C=C\C/C=C\CCCCCCCC(=O)NC1(C(=O)O)CC1` [C18:2 ACCA, N-linoleoyl 1-amino-cyclopropyl carboxylic acid]: the tasting result in assay [4] (setting [10]) is on record as “Creamy, full body, more fatty chicken”.
As for `CCCCCC/C=C\CCCCCCCC(=O)NC(CCC(=O)O)C(=O)O` (stereo not drawn) [C16:1-glu, N-palmitenoyl-Glu], the tasting result in assay [9] is reported as “full, fatty, creamy, sweet vanilla”; in assay [6] (0.5 ppm) it was “full, fatty, creamy”; in assay [1] (1 ppm) it was “full, heavy, jammy, long lasting”.
As to `CCCCCCCCCCCCCCCCCC(=O)NC(CCC(N)=O)C(=O)O` (stereo not drawn) [C18:0-gln, N-stearoyl-Gln], in [7], the tasting result is recorded as “Sweet full juicy, nice, slight enhanced sulphury”.
For the molecule `CCCCCCCC/C=C\CCCCCCCC(=O)NC(CC(=O)O)C(=O)O` (stereo not drawn) [C18:1-asp], the tasting result in assay [3] (1 ppm) was “not special”; in assay [1] (1 ppm), “juicy fruit like”.
Turning to `CCCCC/C=C\C/C=C\CCCCCCCC(=O)NCC(=O)O` [C18:2-gly, N-linoleoyl-glycine], the tasting result in [2] was “very juicy, salivating, authentic, long lasting and sweet aftertaste”.
On to `CCCCCCCCCCCCCCCC(=O)N1CCCC1C(=O)O` (stereo not drawn) [C16:0-pro, N-palmitoyl-Pro], for which the tasting result in assay [3] (1 ppm) is “more salty, full, darker, more meat-like”; in assay [1] (1 ppm), “overripe, orange like, long lasting after taste”.
For `CCCCCCCCCCCCCCCC(=O)N[C@H](C(=O)O)C(C)C` [C16:0-val, N-palmitoyl-L-valine], in assay [8], the tasting result is recorded as “very juicy”.
With `CCCCCCCCCCCCCCCCCC(=O)N[C@@H](CO)C(=O)O` [C18:0-ser, N-stearoyl-Ser], the tasting result in assay [3] (1 ppm) is “more salty, richer, more umami”; in assay [1] (1 ppm), “nice sweet, pineapple, long lasting”.
`CCCCCCCCCCCCCCCC(=O)NCC(=O)O` [C16:0-gly]: the tasting result in assay [2] is given as “sweet after taste juicy”.
Take `CCCCCCCC/C=C\CCCCCCCC(=O)NCCC(=O)O` [C18:1-beta ala]: the tasting result in [3] (2 ppm) is on record as “more salty salivating umami”; in assay [1] (2 ppm), “more juicy, longlasting”.

The record behind these values is patent US11091429B2, “Organic compounds” (Givaudan SA, priority 2012, dated 2021).
